According to PMC3877906, “Polypeptide Modulators of TRPV1 Produce Analgesia without Hyperthermia” (Marine Drugs, 2013):
Entries after “also recorded” stand apart in the source; their conditions may differ.

Legend:
[1] = system: TRPV1; format: cell-based, rat; details: for effect on capsaicin-induced TRPV1 response: whole-cell patch clamp, HEK-293
Experimental: Figure 2 Effects of APHC3 on recombinant TRPV1 expressed in HEK-293 cells. (a) Resting current recorded from a TRPV1-positive cell held at −30 mV. […] Straight lines above the recording indicate application of APHC3 (Long line) and capsaicin (Short lines). The cells were stimulated and rinsed by rapid switching of the bath solution between the control solution and solutions containing the indicated compound. (b) Capsaicin responses in control and in the presence of the 300 nM APHC3 peptide. In each case, the control response was calculated as an average of two acid responses recorded just prior to peptide application. Averaged responses recorded in the presence of APHC3 were normalized to averaged control responses. Those are presented as the mean ± s.d. (n = 4). […] (c, d) Cell responses to the acidification of the bath solution from pH 7.4 to pH 5.5 in control and in the presence of the APHC3 applied at different concentrations as indicated. The experimental traces in (c) and in (d, upper trace) illustrate representative responses of EGFP/TRPV1-positive cells. The bottom trace in (d) represents responses of an EGFP/TRPV1-negative cell assayed simultaneously. (e) Acid responses recorded in the presence of APHC3 (90, 160 and 240 nM) normalized to a control response. The data are presented as the mean ± s.d. (n = 5–10). […] In each case, the control response was calculated as an average of the two acid responses recorded just prior to peptide application. The average of the two acid responses recorded after peptide application was calculated and normalized to the control response. Experimental traces in (c, d) were obtained from three different cells. The changes in bath solution pH (continuous lines) and APHC3 applications (thick straight lines) are shown above the fluorescence traces. Cells were stimulated and rinsed by a rapid replacement of the control bath solution with modified bath solution at pH 5.5 with or without APHC3.
HEK-293 cells were cultured in Dulbecco’s modified Eagle’s medium (DMEM) (Life Technologies, Grand Island, NY, USA) containing 10% (vol/vol) fetal bovine serum (Thermo Fisher Scientific, Palm Beach, FL, USA), glutamine (1%) and the antibiotic gentamicin (100 μg/mL) (Life Technologies, Grand Island, NY, USA). The pIRES2-EGFP plasmid harboring rat TRPV1 cDNA was transiently transfected into HEK-293 cells by replacing the growth medium in each well with a transfection mixture, containing 1.6 μg of DNA and 4 μL of Lipofectamine (Life Technologies, Grand Island, NY, USA) in 1 mL of serum-free DMEM. After incubating for 6 h, the transfection mixture was replaced with normal culture medium. Cells were assayed within 48–96 h after transfection.
Ion currents were recorded using an Axopatch 200A amplifier, with a DigiData 1322A interface, and pClamp8 software (Molecular Devices, Downingtown, PA, USA). External solutions were delivered by a gravity-driven perfusion system at a rate of 0.1 mL/s. Generally, the whole-cell patch clamp approach was used with recording pipettes containing (mM): 140 CsCl, 1 MgATP, 10 BAPTA, 10 HEPES-CsOH (pH 7.2). The basic bath solution included the following (mM): 140 NaCl, 5 KCl, 1 MgCl2, 1 CaCl2, 10 HEPES-NaOH (pH 7.4).

[2] = system: TRPA1; test: TRPA1 activity, oocyte electrophysiology or agonist-induced fluorescence readout; format: cell-based; details: concentrations of up to 2 μM; data not shown
Description: The formalin test is a complex in vivo model of pain where TRPV1’s function is more integrative than perceptive. In the mouse, intraplantar injections of formalin produce a biphasic behavioral reaction. The molecular mechanisms underlying formalin-induced pain are based on tissue damage, non-specific activation of nociceptors and direct activation of TRPA1 receptors (measured in phase I) that drive the local neurogenic inflammation and CNS sensitization (measured in phase 2). APHC1 and APHC3 were tested on TRPA1 for inhibitory/activation effects.

[3] = system: CD-1 mice; test: hot plate test; format: in vivo, mouse
Experimental: The hot plate test is a most simple for TRPV1 inhibitor characterization since TRPV1 play significant role in temperature sensation. Effect of APHC1 and APHC3 on thermal nociception at dose 0.1 mg/kg after intramuscular, intraperitoneal and intravenous administration was measured before. […] Here we assessed changes in thermal nociception to a noxious thermal stimuli elicited by different doses of APHC1 and APHC3 to determine minimal effective dose. […] Both polypeptides reached maximal effect at 0.1 mg/kg.
(§1) All experiments were performed in accordance with the recommendations in the “Principles of Laboratory Animal Care” and after approval by the Animal Care and Use Committee of the Branch of the IBCh RAS (Pushchino, Russia). Adult male CD-1 mice (Animal Breeding Facility Branch of Shemyakin-Ovchinnikov Institute of Bioorganic Chemistry, Russian Academy of Sciences, Pushchino, Russia) weighing 20–25 g were used. Animals were allowed to acclimate in the laboratory for at least five days. Mice were housed at room temperature (23 ± 2 °C) on a 12 h light–dark cycle with food and water available ad libitum. Polypeptides or vehicle was administered intravenously 15 min before testing.
(§2) The significance of the data was determined by analysis of variance (ANOVA) followed by Tukey’s test. Data are presented as mean ± S.E.
Sensitivity to a thermal stimulus was determined by hind paw withdrawal or licking latency using a Hot-Plate Analgesia Meter (Columbus Instruments, Columbus, OH, USA) at 55 °C.

[4] = system: CD-1 mice; test: acetic acid-induced writhing (abdominal constriction test of visceral pain); format: in vivo, mouse
Experimental: TRPV1 can be activated by low pH stimuli and is therefore involved in pain caused by acidification, which can be measured in the pain behavior model of acetic acid-induced writhing. Intraperitoneal administration of acetic acid provokes a very stereotyped behavior in the mouse. The constriction response is considered the definitive measure of visceral pain intensity. Animals were pretreated with polypeptides 15 min before acetic acid injection.
as §1, §2
Separate groups of mice were injected with 0.6% acetic acid in saline (10 mL∙kg^−1 intraperitoneally (i.p.)). Mice were immediately placed inside transparent glass cylinders, and the number of writhes was recorded for 15 min.

[5] = system: CD-1 mice; details: 0.1 mg/kg, intravenous; ref [15],[16]; cited from earlier work
Experimental: The hot plate test is a most simple for TRPV1 inhibitor characterization since TRPV1 play significant role in temperature sensation. Effect of APHC1 and APHC3 on thermal nociception at dose 0.1 mg/kg after intramuscular, intraperitoneal and intravenous administration was measured before. […] Here we assessed changes in thermal nociception to a noxious thermal stimuli elicited by different doses of APHC1 and APHC3 to determine minimal effective dose. Intravenous administration ...

[6] = i.v., 15 min before test, 55 °C, n = 9 per group, vs saline
[7] = 0.1 mg/kg i.v., n = 9, vs saline

APHC1: polypeptide modulator of TRPV1 from sea anemone Heteractis crispa; homologous to BPTI/Kunitz type serine-protease inhibitors; produced recombinantly in E. coli (GSICLEPKVVGPCTAYFRRFYFDSETGKCTVFIYGGCEGNGNNFETLRACRAICRA; left off: TRX, end not stated, cleaved)
effect on capsaicin-induced TRPV1 response ([1]; 100 nM capsaicin): partially blocked the capsaicin-induced response | agonistic/antagonistic activity at TRPA1 [2]: neither agonistic nor antagonistic activity | paw withdrawal latency, hot plate ([3]; 0.001 mg/kg i.v., data not shown): did not prolong paw withdrawal latency | antinociception in hot plate test ([3]; 0.01 mg/kg i.v., 55 °C, n = 9): produced antinociception | paw withdrawal latency, hot plate [3, 6]: Dose dependent inhibition of thermal nociception; also recorded: significantly increased paw withdrawal latency | dose at which maximal effect is reached, hot plate ([3]; i.v., 55 °C, n = 9): 0.1 mg/kg | number of writhes, in words [4, 7]: did not produce a statistically significant effect; also recorded: did not significantly inhibit the response to acetic acid | number of writhes, in words ([4]; 0.5 mg/kg i.v.): significantly reduced number of writhes | paw withdrawal latency, hot plate, previous studies [5]: significantly prolonged paw withdrawal latency

APHC3: polypeptide from Heteractis crispa highly homologous to APHC1, differing in four of 56 amino acids; produced recombinantly in E. coli (GSICLEPKVVGPCTAYFPRFYFNSETGKCTPFIYGGCEGNGNNFETLRACRGICRA; left off: TRX, end not stated, cleaved)
inhibition of TRPV1 currents ([1]; 100 nM capsaicin, 300 nM APHC3, whole-cell, held at −30 mV, pH 7.4 bath, four experiments (n = 4)): ~25% | inhibitory effect on capsaicin-induced currents ([1]; concentrations more than 300 nM): 25% | effect on capsaicin-induced TRPV1 response ([1]; 100 nM capsaicin): partially blocked the capsaicin-induced response | agonistic/antagonistic activity at TRPA1 [2]: neither agonistic nor antagonistic activity | paw withdrawal latency, hot plate [3, 6]: Dose dependent inhibition of thermal nociception; also recorded: significantly increased paw withdrawal latency | dose at which maximal effect is reached, hot plate ([3]; i.v., 55 °C, n = 9): 0.1 mg/kg | number of writhes, in words [4, 7]: significantly reduced the number of writhes | inhibition of number of writhes ([4]; 0.1 and 0.5 mg/kg i.v. 15 min before 0.6% acetic acid i.p., n = 9): 50% | paw withdrawal latency, hot plate, previous studies [5]: significantly prolonged paw withdrawal latency
